In assay [1] the test system is irritant contact dermatitis induced by benzalkonium chloride. As to the kind of experiment: Contact dermatitis induced by benzalkonium in mice (ear edema). Further details: Ear edema (left ears) value: unit not given here. It is filed as in vivo. As to the method:
Irritant contact dermatitis was induced by applying 5% benzalkonium chloride (100 μl per site, dissolved in olive oil:acetone, 1:5 v/v) on the dorsal aspect of the two ears. Ear diameter was measured as a parameter for edema formation, before and hourly for 6 hours after benzalkonium chloride application, using an electronic caliper. The last measurement was performed at 8-hours after dermatitis induction.
(§1) The tested compounds were applied topically dissolved in ethanol:sterile water (1:1) and applied at a final volume of 100 μl, five minutes after irritant contact dermatitis will be induced.
Ear edema (left ears) value for times 1 to 4 hours after irritant stimuli with benzalkonium chloride are represented in the table 3.

The test system of another assay is TPA-induced ear oedema. As to the kind of experiment: Inhibition of TPA-induced ear oedema after topical administration. It is filed as in vivo, male Swiss mice. The conditions noted are these: TPA 2 μg/ear, topical 20 μL of 0.39 nM solution in ethanol 15 min before TPA, ear weight change; for % inhibition 3 hours post-treatment: 3 h post TPA; for % inhibition 5 hours post-treatment: 5 h post TPA. From the text: The tested compounds are: • (11β,16α)-9-fluoro-11-hydroxy-16,17-[1-methylethylidene bis(oxy)]-21-[1-oxo-[4-(nitrooxymethyl)benzoxy]]pregna-1,4-diene-3,20-dione, prepared as described in example 1; • Triamcinolone acetonide that is the reference compound for the compound of example 1; • (11β)-17-[(ethoxycarbonyl)oxy]-11-hydroxy-21-[1-oxo-[4-(nitrooxy methyl)benzoxy]]pregna-1,4-diene-3,20-dione, prepared as described in example 2; • Prednicarbate that is the reference compound for the compound of example 2; The tests were performed according to the methods described by Carlson et al., Agents Actions 17:197-204, 1985, and Lucas et al., J Pharmacol Exp Ther 304:1172-1180, 2003.
Groups of 5-9 male Swiss mice of 27±5 g were used. Inflammation dermatitis was induced by applying 2 μg/ear of TPA (Tetradecanoyl Phorbol Acetate) dissolved with ethanol absolute on the surface of either the dorsal aspect of both ears (20 μL/ear).
15 min before the application of TPA, mice received topically 20 μL of a solution of test compounds (0.39 nM in ethanol) per site applied directly on the skin of the left ear and the vehicle (ethanol 100%) on right ear. Vehicle-Vehicle treated mice were included as negative control group. Compounds were tested at equimolecular doses.
Animals were sacrificed at 3 h or 5 h post TPA dose. Equal sections of both ears were punched out immediately after and weighed. The percentage of change of the weight of left ear versus the weight of right ear was calculated for each animal, and the percentage of inhibition of change in weight of treated animals versus the change in weight of non-treated animals (negative control) was measured.

Another assay has as its system TNF-α. As to the kind of experiment: TPA-induced increase of TNF-α in mouse ear. In kind it is in vivo, Swiss male mice. The conditions noted are these: for TNFalpha: ear homogenate, Mean ± S.E.M. (n = 10). The method, then:
(§2) A ear section of the right ear of mice were homogenized in 500 μl saline, and after centrifugation at 1,200 g for 15 min at 4° C., the PGE2 and TNF-α levels were determined by radioimmunoassay (Hoult et al., Methods Enzymol 1994) or by time-resolved fluoroimmunoassay ([…] et al., Int J. Immunopharmacol. 1995), respectively. Test compounds dissolved in the vehicle were applied topically 15 min before TPA administration.

The next assay concerns PGE2. The assay can be described thus: TPA-induced increase of PGE2 in mouse ear. In kind it is in vivo, Swiss male mice. The conditions noted are these: for PGE2: ear homogenate, Mean ± S.E.M. (n = 10). The method, then: as §2
For assay [2], the system named is dermal microvasculature, leukocyte/endothelial cells interaction. The assay can be described thus: Intravital microscopy of skin flap in mice (vessel diameter, rolling leukocytes). In kind it is in vivo, C57B16 male mice. Further details: unit not given here. The conditions noted are these: 3 nmol topical. As to the method:
C57B16 male mice will be anaesthetized by intraperitoneal injection of a mixture of 10 mg/kg xylazine (MTC Pharmaceuticals, Cambridge, Ontario, Canada) and 200 mg/kg ketamine hydrochloride (Rogar/STB, London, Ontario, Canada). […] Therefore, after anaesthesia, mice will receive an intravenous injection of a fluorescent dye, rhodamine 6G (Sigma, St. Louis, Mo., USA, 0.3 mg/kg). […] Then, a midline abdominal incision will be performed, from the diaphragm, extending to the pelvic region. The skin will carefully be separated from the underlying tissue, but remained attached laterally, so the blood supply to the skin flap remained intact. The skin flap will be extended over a viewing pedestal to expose the dermal microvasculature and secured along the edges using 4.0 sutures. The exposed dermal tissues will be superfused with a bicarbonate-buffered saline pH 7.4, to avoid tissue dehydration. The microcirculation will be observed using an inverted microscope (Nikon) with a ×20 objective lens, and rhodamine 6G allows visualization and quantification of the number of rolling and adherent leukocytes, by epi-illumination at 510-560 nm, using a 590-nm emission filter. Single unbranched venules (20-40 μm in diameter) will be selected for the study. Images of the selected venule will be recorded for […], after a 15-min equilibration period and the end of this 5-min interval was considered as time 0. Leukocyte adherence will be determined upon video playback, on 100 μm vessel length (table 4). A leukocyte will be considered adherent to the endothelium if it remained stationary for 30 s or more. Leukocyte flux will be defined as the number of leukocytes per minute moving at a velocity less than that of erythrocytes, which passed a reference point in the venule. The changes in flux of rolling leukocytes will be evaluated as differences between the number of rolling leukocytes at each interval and the basal number of rolling leukocytes (table 5).
as §1

The mark [3] stands for this setting: 3 nmol topical, 1 hour after benzalkonium application.
The mark [4] stands for this setting: 3 nmol topical, 2 hours after benzalkonium application.
Setting [5] is: 3 nmol topical, 3 hours after benzalkonium application.
Setting [6] is: 3 nmol topical, 4 hours after benzalkonium application.
[7] abbreviates: 0.48 μg/ear topical 15 min before TPA.
The mark [8] stands for this setting: 1 μg/ear topical 15 min before TPA.

In the case of `CC1(C)O[C@@H]2C[C@H]3C4CCC5=CC(=O)C=C[C@]5(C)[C@@]4(F)[C@@H](O)C[C@]3(C)[C@]2(C(=O)COC(=O)c2ccc(CO[N+](=O)[O-])cc2)O1` (stereo partly drawn) [Example 1, (11β,16α)-9-fluoro-11-hydroxy-16,17-[1-methylethylidenebis(oxy)]-21-[1-oxo-[4-(nitrooxymethyl)benzoxy]]pregna-1,4-diene-3,20-dione], the “Ear edema (left ears) value” in assay [1] (0.3 nmol topical, 1 hour after benzalkonium application) stood at 0.026 ± 0.005; in assay [1] (0.3 nmol topical, 2 hours after benzalkonium application), 0.035 ± 0.008; in assay [1] (0.3 nmol topical, 3 hours after benzalkonium application), 0.053 ± 0.009; in assay [1] (0.3 nmol topical, 4 hours after benzalkonium application), 0.047 ± 0.007; in assay [1] (1 nmol topical, 1 hour after benzalkonium application) it was 0.020 ± 0.006; in assay [1] (1 nmol topical, 2 hours after benzalkonium application), 0.035 ± 0.008. For the same compound, the “Ear edema (left ears) value” in assay [1] (1 nmol topical, 3 hours after benzalkonium application) stood at 0.057 ± 0.011; in assay [1] (1 nmol topical, 4 hours after benzalkonium application) it was 0.065 ± 0.010; in assay [1] (setting [3]) it was 0.018 ± 0.004; in assay [1] (setting [4]), 0.042 ± 0.007; in assay [1] (setting [5]), 0.042 ± 0.010; in assay [1] (setting [6]) it was 0.070 ± 0.007. Also, the “Inhibition of ear edema, result in words” value in assay [1] (compared with triamcinolone acetonide, mainly at earlier times) is “dose-dependent effect in inhibiting ear edema with a better profile than triamcinolone acetonide”. In the assay with TPA-induced ear oedema, the “% inhibition 3 hours post-treatment” value is given as 22.70%. In the assay with TPA-induced ear oedema, the “% inhibition 5 hours post-treatment” value is listed as 21.01%. The same compound gave a TNFalpha in the assay on TNF-α (setting [7]) of 149.5 ± 17.8 pg/mL. The “Inhibition of TNF-α release, result in words” value in the assay with TNF-α (versus prior art compound) is given as “inhibits the release of TNF-α in a higher potency than the prior art compound”. In the assay on PGE2 (setting [7]), this compound returned a PGE2 of 53.2 ± 4.5 ng/mL. Besides, in the assay with PGE2 (low dose versus higher dose of the parent compound), the “Reduction of PGE2 level / inflammation, result in words” value was “more effective in reducing the inflammation than the correspondent parent compound”. The “Area under the curve (change in flux of rolling leucocytes)” value in assay [2] is 247 ± 35. In addition, the “Area under the curve (change in vessel diameter)” value in assay [2] is on record as 114 ± 32.
`CCOC(=O)O[C@]1(C(=O)COC(=O)c2ccc(CO[N+](=O)[O-])cc2)CC[C@H]2[C@@H]3CCC4=CC(=O)C=C[C@]4(C)[C@H]3[C@@H](O)C[C@@]21C` [Example 2, (11β)-17-[(ethoxycarbonyl)oxy]-11-hydroxy-21-[1-oxo-[4-(nitrooxymethyl)benzoxy]]pregna-1,4-diene-3,20-dione]: the “Ear edema (left ears) value” in assay [1] (setting [3]) is listed as 0.025 ± 0.008; in assay [1] (setting [4]) it was 0.028 ± 0.009; in assay [1] (setting [5]), 0.040 ± 0.009; in assay [1] (setting [6]), 0.061 ± 0.007. In addition, in the assay on TPA-induced ear oedema, the “% inhibition 3 hours post-treatment” value stood at 33.26%. Moreover, the “Area under the curve (change in flux of rolling leucocytes)” value in assay [2] worked out at 300 ± 75. Also, in assay [2], the “Area under the curve (change in vessel diameter)” value was determined as 175 ± 70.
Regarding `CCOC(=O)O[C@]1(C(=O)COC(=O)CC)CC[C@H]2[C@@H]3CCC4=CC(=O)C=C[C@]4(C)[C@H]3[C@@H](O)C[C@@]21C` [Prednicarbate, reference compound], in the assay with TPA-induced ear oedema, the “% inhibition 3 hours post-treatment” value was 19.58%. Besides, in assay [2], the “Area under the curve (change in flux of rolling leucocytes)” value is 412 ± 112 and the “Area under the curve (change in vessel diameter)” value came to 282 ± 71.
`CC1(C)O[C@@H]2C[C@H]3[C@@H]4CCC5=CC(=O)C=C[C@]5(C)[C@@]4(F)[C@@H](O)C[C@]3(C)[C@]2(C(=O)CO)O1` [Triamcinolone acetonide, reference compound]: the “Ear edema (left ears) value” amounted to 0.037 ± 0.005 in assay [1] (setting [3]), 0.063 ± 0.010 in assay [1] (setting [4]), 0.041 ± 0.018 in assay [1] (setting [5]) and 0.068 ± 0.022 in assay [1] (setting [6]). In addition, the “% inhibition 3 hours post-treatment” value in the assay with TPA-induced ear oedema was found to be 14.90%. Further, the “% inhibition 5 hours post-treatment” value in the assay with TPA-induced ear oedema is listed as 12.19%. The same compound showed a TNFalpha in the assay with TNF-α (setting [8]) of 158.0 ± 24.6 pg/mL. In addition, in the assay with PGE2 (setting [8]), the PGE2 was 43.0 ± 3.8 ng/mL. The “Area under the curve (change in flux of rolling leucocytes)” value in assay [2] is recorded as 376 ± 129. For the same compound, the “Area under the curve (change in vessel diameter)” value in assay [2] stood at 278 ± 78.

The values are drawn from US20090258849A1, “NITROOXY DERIVATIVES OF GLUCOCORTICOIDS” (Nicox S.A., priority 2005, published 2009).
